Experimental data taken from ChEMBL document CHEMBL1201862, “PubChem BioAssay data set” (2004).
Calls of active or inactive are those of the source.

Key:
CAAX prenyl protease 2 = CAAX prenyl protease 2 (Homo sapiens, UniProt Q9Y256); experiment: human Rce1 protease inhibitors, dose response, biochemical, yeast membranes, quenched-peptide fluorescence, cherry-pick (AID 588849)
[1] = NIH-3T3 fibroblast cytotoxicity, dose response, cytotoxicity control, cell-based, fluorescence, Alamar Blue, secondary assay (AID 2327); assay type: functional;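 note: NIH-3T3 mouse fibroblasts cultured with fluconazole at 8 µg/mL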
[2] = target: Serine/threonine-protein phosphatase (Candida dubliniensis (strain CD36 / CBS 7987 / NCPF 3949 / NRRLY-17841) (Yeast), UniProt B9W6M3); experiment: calcineurin pathway inhibitors in yeast reporter, dose response, S. cerevisiae, CDRE-lacZ, luminescence, secondary (AID 2388); assay type: functional, cell-based;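 note: yeast reporter cells carrying a calcineurin-responsive lacZ construct stimulated with calcium chloride; luminescent beta-galactosidase reporter signal in whole cells rather than isolated phosphatase activity; potency for inhibition where a drop in reporter signal means calcineurin blockade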
[3] = target: ATP-dependent molecular chaperone HSP82 (Candida albicans (strain WO-1) (Yeast), UniProt C4YTQ8); experiment: loss of DOC-induced GRE-beta-galactosidase reporter signal, dose response, Hsp90 inhibitor project, S. cerevisiae, luminescence (AID 2400); assay type: functional, cell-based;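 note: beta-galactosidase luminescence from glucocorticoid response element reporter as proxy for Hsp90 function; inhibitor potency where signal loss means Hsp90 inhibition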
[4] = C. albicans growth with fluconazole, confirmation, fluorescence, retest (AID 2467); assay type: functional, cell-based
[5] = inhibitors of SNCA 5'UTR-driven reporter translation, confirmation, H4 neuroglioma cells, luminescence (AID 1988); assay type: functional, cell-based
[6] = inhibitors of firefly luciferase expression or activity, dose response, H4 neuroglioma cells, luminescence (AID 1990); assay type: functional, cell-based
ORF 73 = ORF 73 (Human herpesvirus 8, UniProt O40947); experiment: inhibitors of C-LANA binding to LBS DNA, dose response, biochemical, fluorescence polarization, cherry-picked samples (AID 504725); parameters: species or system Human gammaherpesvirus 8;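 note: fluorescence polarization of a labeled DNA duplex reporting LANA DNA binding; potency is for inhibitors that block LANA binding to the DNA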
HeLa = experiment: HeLa cell cytotoxicity, dose response, cytotoxicity control, 24 h, cherry-picked samples (AID 504726); assay type: functional, cell-based; conditions: Homo sapiens;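 note: potency for cytotoxicity as loss of luminescence signal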
Troponin, cardiac muscle = Troponin, cardiac muscle (Homo sapiens, UniProt P19429+P45379+P63316); experiment: Fluorescence-based biochemical high throughput dose response assay for activators of the calcium sensitivity of cardiac Regulated Thin Filaments (RTF). [Related pubchem assays (depositor defined):AID493008, AID493018, AID504382, AID504383]; assay type: protein-complex assay
[7] = Luminescence Cell-Based Dose Response HTS to Identify Inhibitors of Luciferase Translation or Activity in H4-C Neuroglioblastoma Cells. [Related pubchem assays: 1813 (Primary HTS), 1827 (Project Summary)]; assay type: functional
[8] = Luminescence Cell-Based Dose Response HTS to Identify Activators of 5'UTR Stem-Loop Driven Prion Protein mRNA Translation in H4-C Neuroglioblastoma Cells. [Related pubchem assays: 1829 (Project Summary), 1814 (Primary HTS)]; assay type: functional
[9] = target: UDP-galactopyranose mutase (Mycobacterium tuberculosis, UniProt P9WIQ1); experiment: Inhibitors of Mycobacterium tuberculosis UDP-galactopyranose mutase (UGM) enzyme Measured in Biochemical System Using Plate Reader - 2105-02_Inhibitor_Dose_CherryPick_Activity. [Related pubchem assays (depositor defined):AID504439]
[10] = Luminescence Cell-Based Dose Confirmation HTS to Identify Inhibitors of 5'UTR Stem-Loop Driven Alpha-Synuclein mRNA Translation in H4 Neuroglioblastoma Cells. [Related pubchem assays: 1827 (Project Summary), 1813 (Primary HTS)]; assay type: functional
Keap1/Nrf2 = Keap1/Nrf2 (Homo sapiens, UniProt Q14145); experiment: Keap1-Nrf2 protein-protein interaction inhibitors, dose response, biochemical, fluorescence polarization, cherry-picked samples (AID 588683)
[11] = Luminescence Cell-Based Dose HTS Response to Identify Inhibitors of 5'UTR Stem-Loop Driven Prion Protein mRNA Translation in H4-C Neuroglioblastoma Cells. [Related pubchem assays (depositor defined):AID1814, AID1827]; assay type: functional
[12] = Luminescence Cell-Based Dose Retest to Confirm Activators of 5'UTR Stem-Loop Driven Alpha-Synuclein mRNA Translation in H4 Neuroglioblastoma Cells. [Related pubchem assays (depositor defined):AID1813, AID1829]; assay type: functional
[13] = Luminescence Cell-Based Dose Response HTS to Identify Activators of Luciferase Translation or Activity in H4-C Neuroglioblastoma Cells. [Related pubchem assays: 1829 (Project Summary), 1814 (Primary HTS)]; assay type: functional
[14] = Luminescence Cell-Based Dose Response HTS to Identify Inhibitors of 5'UTR Stem-Loop Driven Prion Protein mRNA Translation in H4 Neuroglioblastoma Cells. [Related pubchem assays: 1827 (Project Summary), 1813 (Primary HTS)]; assay type: functional
[15] = target: 5-hydroxytryptamine receptor 5A (Homo sapiens, UniProt P47898); experiment: Counterscreen for agonists of OPRM1-OPRD1 heterodimerization: luminescence-based cell-based high throughput dose response assay to identify agonists of 5-hydroxytryptamine (serotonin) 5A receptor (HTR5A). [Related pubchem assays (depositor defined):AID504326, AID504355, AID504692, AID504904, AID504905]; assay type: functional
Mu-type opioid receptor = Mu-type opioid receptor (Homo sapiens, UniProt P35372); experiment: (§1) Counterscreen for agonists of heterodimerization of the mu 1 (OPRM1) and delta 1 (OPRD1) opioid receptors: Luminescence-based cell-based high throughput dose response assay to identify agonists of OPRM1 homodimerization.; assay type: functional
[16] = target: Delta-type opioid receptor (Homo sapiens, UniProt P41143); experiment: as §1, with “of OPRD1” for “of OPRM1”, “homodimerization. [Related pubchem assays (depositor defined):AID504326, AID504355, AID504692, AID504904, AID504905]” for “homodimerization.”; assay type: functional
[17] = target: T1, Short transient receptor potential channel 4 (Mus musculus, UniProt Q9QUQ5); experiment: mouse TRPC4 channel activators, dose response, cell-based, HEK293 TRPC4/mu-opioid, Fluo-4 calcium (AID 434937); assay type: functional
T1 sequence (Q9QUQ5 whole entry): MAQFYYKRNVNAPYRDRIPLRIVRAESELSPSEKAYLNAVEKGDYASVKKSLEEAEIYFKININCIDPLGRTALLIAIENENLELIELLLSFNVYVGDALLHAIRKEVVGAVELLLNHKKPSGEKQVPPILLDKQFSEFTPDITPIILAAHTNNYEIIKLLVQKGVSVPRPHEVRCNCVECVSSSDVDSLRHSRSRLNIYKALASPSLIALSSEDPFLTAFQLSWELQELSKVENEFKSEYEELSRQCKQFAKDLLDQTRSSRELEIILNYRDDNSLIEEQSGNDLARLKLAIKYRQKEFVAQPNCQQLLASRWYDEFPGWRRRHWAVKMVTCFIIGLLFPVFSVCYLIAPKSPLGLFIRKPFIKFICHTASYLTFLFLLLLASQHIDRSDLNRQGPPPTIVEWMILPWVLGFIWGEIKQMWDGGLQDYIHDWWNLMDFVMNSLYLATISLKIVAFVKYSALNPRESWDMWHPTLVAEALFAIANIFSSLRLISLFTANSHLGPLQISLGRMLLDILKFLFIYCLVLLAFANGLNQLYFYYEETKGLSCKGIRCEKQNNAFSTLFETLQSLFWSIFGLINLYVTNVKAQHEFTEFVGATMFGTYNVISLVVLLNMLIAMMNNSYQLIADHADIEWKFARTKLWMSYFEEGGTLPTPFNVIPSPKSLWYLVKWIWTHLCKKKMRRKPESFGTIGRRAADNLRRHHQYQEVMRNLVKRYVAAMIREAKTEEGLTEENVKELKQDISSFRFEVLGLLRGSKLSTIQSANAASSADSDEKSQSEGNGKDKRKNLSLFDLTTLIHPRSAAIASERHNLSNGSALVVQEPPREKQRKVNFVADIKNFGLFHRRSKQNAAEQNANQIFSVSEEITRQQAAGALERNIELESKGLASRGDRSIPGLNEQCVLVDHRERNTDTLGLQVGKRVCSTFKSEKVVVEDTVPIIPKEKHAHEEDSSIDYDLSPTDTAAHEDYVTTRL

[18] = target: Voltage-gated inwardly rectifying potassium channel KCNH2 (Homo sapiens, UniProt Q12809);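 note: confirmatory quantitative high-throughput screen measuring inhibition of hERG channel activity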

Chain of 5-hydroxytryptamine receptor 5A (P47898 whole entry): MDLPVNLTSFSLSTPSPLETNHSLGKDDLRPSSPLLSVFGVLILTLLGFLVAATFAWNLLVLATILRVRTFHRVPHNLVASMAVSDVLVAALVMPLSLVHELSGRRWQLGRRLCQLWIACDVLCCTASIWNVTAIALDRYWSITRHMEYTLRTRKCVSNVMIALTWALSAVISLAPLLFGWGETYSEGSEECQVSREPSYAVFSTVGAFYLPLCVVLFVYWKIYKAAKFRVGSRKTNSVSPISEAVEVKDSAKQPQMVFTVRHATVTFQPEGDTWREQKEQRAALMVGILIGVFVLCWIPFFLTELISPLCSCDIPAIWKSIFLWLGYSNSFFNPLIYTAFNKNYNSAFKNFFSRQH
Chain of Keap1/Nrf2 (Q16236 whole entry): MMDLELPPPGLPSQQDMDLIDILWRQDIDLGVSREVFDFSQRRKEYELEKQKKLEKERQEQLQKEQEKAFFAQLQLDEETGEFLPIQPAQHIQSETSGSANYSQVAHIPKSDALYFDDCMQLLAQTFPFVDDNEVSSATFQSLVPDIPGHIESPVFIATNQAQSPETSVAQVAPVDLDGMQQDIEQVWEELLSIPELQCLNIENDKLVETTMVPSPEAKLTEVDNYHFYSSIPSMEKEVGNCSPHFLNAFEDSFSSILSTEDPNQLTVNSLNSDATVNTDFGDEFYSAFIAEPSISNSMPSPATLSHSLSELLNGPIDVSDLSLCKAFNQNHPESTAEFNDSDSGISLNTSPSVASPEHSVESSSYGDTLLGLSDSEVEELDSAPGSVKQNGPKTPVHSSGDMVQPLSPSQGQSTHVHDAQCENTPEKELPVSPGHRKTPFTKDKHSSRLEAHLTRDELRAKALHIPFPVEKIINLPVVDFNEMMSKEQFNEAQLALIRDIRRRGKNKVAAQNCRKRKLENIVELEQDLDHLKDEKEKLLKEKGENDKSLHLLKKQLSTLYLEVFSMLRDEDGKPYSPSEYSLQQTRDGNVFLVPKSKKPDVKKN
Chain of Keap1/Nrf2 (Q14145 whole entry): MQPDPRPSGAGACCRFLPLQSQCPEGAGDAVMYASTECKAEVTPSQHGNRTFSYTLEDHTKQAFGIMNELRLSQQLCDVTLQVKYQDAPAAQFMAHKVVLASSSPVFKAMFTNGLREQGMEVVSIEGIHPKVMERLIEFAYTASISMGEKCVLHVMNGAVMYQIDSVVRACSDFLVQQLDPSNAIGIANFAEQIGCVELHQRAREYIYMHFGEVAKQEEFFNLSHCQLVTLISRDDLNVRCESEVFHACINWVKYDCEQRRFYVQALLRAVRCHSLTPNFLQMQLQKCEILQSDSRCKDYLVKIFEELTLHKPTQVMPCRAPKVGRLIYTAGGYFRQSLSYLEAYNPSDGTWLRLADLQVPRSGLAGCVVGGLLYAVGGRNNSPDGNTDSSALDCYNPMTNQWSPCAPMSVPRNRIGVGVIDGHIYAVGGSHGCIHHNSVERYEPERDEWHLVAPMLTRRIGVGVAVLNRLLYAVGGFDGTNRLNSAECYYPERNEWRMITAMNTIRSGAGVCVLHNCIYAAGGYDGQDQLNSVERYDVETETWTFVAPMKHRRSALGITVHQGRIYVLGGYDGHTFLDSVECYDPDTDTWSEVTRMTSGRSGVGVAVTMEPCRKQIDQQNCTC
Chain of CAAX prenyl protease 2 (Q9Y256 whole entry): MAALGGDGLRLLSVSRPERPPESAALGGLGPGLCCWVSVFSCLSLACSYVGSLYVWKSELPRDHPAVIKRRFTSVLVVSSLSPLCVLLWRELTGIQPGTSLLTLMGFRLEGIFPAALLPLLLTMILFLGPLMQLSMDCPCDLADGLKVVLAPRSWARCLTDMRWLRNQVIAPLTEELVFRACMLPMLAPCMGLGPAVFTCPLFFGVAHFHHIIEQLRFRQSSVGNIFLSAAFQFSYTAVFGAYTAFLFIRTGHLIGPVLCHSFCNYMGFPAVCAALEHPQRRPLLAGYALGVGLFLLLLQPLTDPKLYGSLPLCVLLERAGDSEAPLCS
Chain of Mu-type opioid receptor (P35372 whole entry): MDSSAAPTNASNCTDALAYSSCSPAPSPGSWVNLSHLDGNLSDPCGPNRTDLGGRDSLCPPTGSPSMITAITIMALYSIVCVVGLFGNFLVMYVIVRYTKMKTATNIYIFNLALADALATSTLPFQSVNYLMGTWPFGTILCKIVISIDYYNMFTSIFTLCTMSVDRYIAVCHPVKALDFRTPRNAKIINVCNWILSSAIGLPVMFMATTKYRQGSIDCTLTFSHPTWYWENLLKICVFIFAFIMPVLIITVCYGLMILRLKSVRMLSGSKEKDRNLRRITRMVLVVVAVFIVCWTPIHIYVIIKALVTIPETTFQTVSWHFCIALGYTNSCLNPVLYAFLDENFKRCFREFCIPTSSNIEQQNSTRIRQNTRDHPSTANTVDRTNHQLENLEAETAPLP
Chain of Serine/threonine-protein phosphatase (B9W6M3 whole entry): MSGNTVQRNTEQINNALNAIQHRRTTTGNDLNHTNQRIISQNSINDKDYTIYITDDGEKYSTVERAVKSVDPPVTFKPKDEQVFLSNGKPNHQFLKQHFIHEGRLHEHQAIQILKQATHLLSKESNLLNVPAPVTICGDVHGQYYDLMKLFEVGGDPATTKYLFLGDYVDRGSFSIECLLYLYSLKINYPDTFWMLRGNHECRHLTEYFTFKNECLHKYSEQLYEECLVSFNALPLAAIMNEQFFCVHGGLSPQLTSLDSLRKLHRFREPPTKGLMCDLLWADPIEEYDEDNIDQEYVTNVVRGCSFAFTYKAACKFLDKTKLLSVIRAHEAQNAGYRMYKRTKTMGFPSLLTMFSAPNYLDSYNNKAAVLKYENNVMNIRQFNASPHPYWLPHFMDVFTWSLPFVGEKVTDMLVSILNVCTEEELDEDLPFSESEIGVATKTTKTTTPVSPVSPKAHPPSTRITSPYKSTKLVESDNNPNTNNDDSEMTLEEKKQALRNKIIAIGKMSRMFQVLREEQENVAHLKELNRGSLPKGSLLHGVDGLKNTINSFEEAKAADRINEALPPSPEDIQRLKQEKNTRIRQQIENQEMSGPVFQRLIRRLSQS
Chain of ORF 73 (O40947 whole entry): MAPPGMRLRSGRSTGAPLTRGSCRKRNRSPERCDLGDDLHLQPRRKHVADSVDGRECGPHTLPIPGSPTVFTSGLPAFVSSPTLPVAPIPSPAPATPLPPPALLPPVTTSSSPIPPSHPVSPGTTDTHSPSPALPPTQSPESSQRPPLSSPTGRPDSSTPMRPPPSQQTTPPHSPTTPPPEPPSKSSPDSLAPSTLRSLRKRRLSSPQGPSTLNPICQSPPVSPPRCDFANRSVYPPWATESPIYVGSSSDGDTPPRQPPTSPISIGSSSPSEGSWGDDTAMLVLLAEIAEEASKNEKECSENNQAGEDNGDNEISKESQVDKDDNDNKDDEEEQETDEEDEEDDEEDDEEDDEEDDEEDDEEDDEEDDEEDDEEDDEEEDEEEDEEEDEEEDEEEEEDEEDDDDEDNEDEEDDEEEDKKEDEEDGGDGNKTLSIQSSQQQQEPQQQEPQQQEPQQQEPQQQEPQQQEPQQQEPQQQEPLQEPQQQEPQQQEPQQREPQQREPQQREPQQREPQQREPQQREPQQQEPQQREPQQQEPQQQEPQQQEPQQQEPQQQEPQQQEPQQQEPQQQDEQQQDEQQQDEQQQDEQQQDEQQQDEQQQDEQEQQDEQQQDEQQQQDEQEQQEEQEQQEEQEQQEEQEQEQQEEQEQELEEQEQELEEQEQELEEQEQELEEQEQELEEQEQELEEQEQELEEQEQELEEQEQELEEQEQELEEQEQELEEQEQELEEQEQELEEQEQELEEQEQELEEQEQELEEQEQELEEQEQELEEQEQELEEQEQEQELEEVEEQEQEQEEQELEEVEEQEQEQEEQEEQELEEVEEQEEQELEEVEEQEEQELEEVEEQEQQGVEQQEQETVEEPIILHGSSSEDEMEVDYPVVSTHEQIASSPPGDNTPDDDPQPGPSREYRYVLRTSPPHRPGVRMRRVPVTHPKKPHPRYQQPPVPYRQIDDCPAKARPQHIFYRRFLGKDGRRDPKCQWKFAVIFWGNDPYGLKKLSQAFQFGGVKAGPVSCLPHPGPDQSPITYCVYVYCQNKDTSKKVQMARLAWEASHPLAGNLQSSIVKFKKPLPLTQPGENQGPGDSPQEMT
Chain of UDP-galactopyranose mutase (P9WIQ1 whole entry): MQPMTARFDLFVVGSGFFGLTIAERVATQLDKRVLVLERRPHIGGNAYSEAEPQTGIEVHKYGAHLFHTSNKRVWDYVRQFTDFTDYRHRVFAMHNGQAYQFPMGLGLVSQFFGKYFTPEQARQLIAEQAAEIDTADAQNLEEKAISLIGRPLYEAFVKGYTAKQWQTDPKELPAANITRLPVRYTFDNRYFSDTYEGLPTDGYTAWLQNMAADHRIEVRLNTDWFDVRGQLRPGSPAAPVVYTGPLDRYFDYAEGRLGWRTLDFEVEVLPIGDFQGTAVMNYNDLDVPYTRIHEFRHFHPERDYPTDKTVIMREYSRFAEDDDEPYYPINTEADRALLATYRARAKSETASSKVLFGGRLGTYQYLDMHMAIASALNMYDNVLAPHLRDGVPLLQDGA
Chain of Delta-type opioid receptor (P41143 whole entry): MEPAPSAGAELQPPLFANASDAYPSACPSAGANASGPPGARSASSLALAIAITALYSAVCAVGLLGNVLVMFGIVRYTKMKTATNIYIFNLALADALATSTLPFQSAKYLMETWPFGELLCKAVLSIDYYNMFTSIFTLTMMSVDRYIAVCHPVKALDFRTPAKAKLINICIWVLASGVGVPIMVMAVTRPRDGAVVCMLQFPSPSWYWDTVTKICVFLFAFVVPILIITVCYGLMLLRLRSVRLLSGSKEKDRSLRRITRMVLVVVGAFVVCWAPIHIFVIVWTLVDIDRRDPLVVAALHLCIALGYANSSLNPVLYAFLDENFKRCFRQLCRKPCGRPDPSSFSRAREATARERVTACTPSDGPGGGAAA

CC(C)C(NC(=O)c1ccco1)C(=O)NCC(c1ccco1)N1CCCCC1 (centres undefined)
AC50 (CAAX prenyl protease 2): 48.9 µM (active)

COc1cc2c(cc1NC(=O)c1ccco1)CCCC2
EC50 [1]: > 150 µM (inactive)
EC50 [2]: > 180 µM (inactive)
EC50 [3]: > 150 µM (inactive)
EC50 [4]: 0.841 µM (active)

O=C(OCCN1C(=O)c2cccc3c(N4CCOCC4)ccc(c23)C1=O)c1ccc(Cl)cc1Cl
EC50 [5]: 0.331 µM (active)
EC50 [6]: 9.06 µM (inconclusive)
AC50 (ORF 73): 15.5 µM (active)
AC50 (HeLa): 16.5 µM (active)
EC50 (Troponin, cardiac muscle): 1.11 µM (active)
EC50 [7]: 2.14 µM (active)
EC50 [8]: 0.722 µM (inconclusive)
AC50 [9]: 5.23 µM (active)
EC50 [10]: 6.15 µM (active)
AC50 (Keap1/Nrf2): 7.59 µM (active)
EC50 [11]: 0.722 µM (active)
EC50 [12]: 6.15 µM (inconclusive)
EC50 [13]: 2.14 µM (inconclusive)
EC50 [14]: 12 µM (active)

CCC(=O)OC1(c2cccc(C)c2)CC(C)N(C)CC1C (centres undefined)
EC50 [15]: > 92.5 µM (inactive)
EC50 (Mu-type opioid receptor): > 92.5 µM (inactive)
EC50 [16]: > 92.5 µM (inactive)
EC50 [17]: 0.335 µM (active)

Cl.c1ccc2c(c1)[IH]c1ccccc1-2
Potency [18]: 35.4813 µM
